Results reported in ChEMBL document CHEMBL3881526, “Selective androgen receptor modulators and method of use thereof” (2007).
Activity calls are given as the source filed them. The rule behind the calls is not given here.

Assays:
[1] = Oral bioavailability in beagle dog at 10 mg/kg administered via capsule after 72 hrs by HPLC analysis; format: ADME, organism-based, Canis lupus familiaris; conditions: in vivo
Rattus norvegicus [2] = assay: Androgenic activity in ORX Sprague-Dawley rat assessed as restoration of seminal vesicles weight at 0.1 to 1 ug/day delivered at constant rate for 14 days via subcutaneous osmotic pumps; format: functional
Rattus norvegicus [3] = assay: Androgenic activity in ORX Sprague-Dawley rat assessed as restoration of prostate weight at 0.1 to 1 ug/day delivered at constant rate for 14 days via subcutaneous osmotic pumps; format: functional
Rattus norvegicus [4] = assay: Androgenic activity in ORX Sprague-Dawley rat assessed as restoration of seminal vesicles weight at 1000 ug/day delivered at constant rate for 14 days via subcutaneous osmotic pumps; format: functional, tissue-based
Rattus norvegicus [5] = assay: Effect on serum LH in ORX Sprague-Dawley rat at 0.3 mg/day delivered at constant rate for 14 days via subcutaneous osmotic pumps; format: ADME; conditions: sc, 336 h
[6] = Plasma clearance in beagle dog at 3 mg/kg, iv after 72 hrs by HPLC analysis; format: ADME, organism-based, Canis lupus familiaris
[7] = Terminal half life in beagle dog at 3 mg/kg, iv after 72 hrs by HPLC analysis; format: ADME, organism-based, Canis lupus familiaris; conditions: in vivo, read-out: beta t1/2 (converted)
Rattus norvegicus [8] = assay: Anabolic activity in ORX Sprague-Dawley rat assessed as restoration of levator ani muscle weight at 1000 ug/day delivered at constant rate for 14 days via subcutaneous osmotic pumps; format: functional, tissue-based
Rattus norvegicus [9] = assay: Anabolic activity in ORX Sprague-Dawley rat assessed as restoration of levator ani muscle weight at 0.1 to 1 ug/day delivered at constant rate for 14 days via subcutaneous osmotic pumps; format: functional
Rattus norvegicus [10] = assay: Effect on serum FSH in ORX Sprague-Dawley rat at 0.3 mg/day delivered at constant rate for 14 days via subcutaneous osmotic pumps; format: ADME; conditions: sc, 336 h
Rattus norvegicus [11] = assay: Androgenic activity in ORX Sprague-Dawley rat assessed as restoration of prostate weight at 1000 ug/day delivered at constant rate for 14 days via subcutaneous osmotic pumps; format: functional, tissue-based
[12] = Oral bioavailability in beagle dog at 10 mg/kg administered via solution after 72 hrs by HPLC analysis; format: ADME, organism-based, Canis lupus familiaris; conditions: in vivo

Q: With `CC(=O)Nc1ccc(OC[C@](C)(O)C(=O)Nc2ccc([N+](=O)[O-])c(C(F)(F)F)c2)cc1` as the compound, how does the bioavailability [1] read?
A: The bioavailability was 19%.

Q: And the Activity (Rattus norvegicus [2])?
A: Its Activity is “Dose-dependent effect”.

Q: And the Activity (Rattus norvegicus [3])?
A: The Activity was “Dose-dependent effect”.

Q: And the Activity (Rattus norvegicus [4])?
A: Its Activity is “Active”.

Q: And the Activity (Rattus norvegicus [5])?
A: Its Activity is “Non-Toxic”.

Q: What about the clearance [6] of the same compound?
A: Its clearance is 4.4 mL/min/kg.

Q: What about the half-life [7] of the same compound?
A: Its half-life is 4 h.

Q: What about the Activity (Rattus norvegicus [8]) of the same compound?
A: Its Activity is “Active”.

Q: What about the Activity (Rattus norvegicus [9]) of the same compound?
A: The Activity was “Dose-dependent effect”.

Q: What about the Activity (Rattus norvegicus [10]) of the same compound?
A: Its Activity is “Non-Toxic”.

Q: And the Activity (Rattus norvegicus [11])?
A: The Activity was “Active”.

Q: And the bioavailability [12]?
A: The bioavailability was 38%.
